From patent publication US8232289B2, “Spiropiperidine compounds as ORL-1 receptor antagonists” (Eli Lilly and Company, priority 2009, dated 2012)
Marks after values point to notes of the source that are not given here.

Experiments:
[1] = Rat hepatic microsomal glutathione trapping assay; type: in vitro ADME; conditions: hepatic microsomal homogenate, glutathione as nucleophile
Source text: Assuming that reactive metabolites may play a role in clinical IDRs, minimizing the potential for oxidative bioactivation has been proposed as a means of improving the overall safety profile of compounds containing structural features associated with such reactivity. (see Baillie, Thomas A., Approaches to the Assessment of Stable and Chemically Reactive Drug Metabolites in Early Clinical Trials, Chemical Research in Toxicology, vol 22(2) 2009.) To this end, representative compounds of the present invention and related compounds are screened using a rat hepatic microsomal trapping assay, using glutathione as an endogenous nucleophile, to understand the potential for oxidative bioactivation of the thienyl moiety. […] Of the compounds tested, those wherein R^2a and R^2b are fluoro are found to not show glutathione conjugate formation.

[2] = target: T1, cloned human ORL1/nociceptin receptors (Homo sapiens, UniProt P41146); assay: Functional blockade of agonist-mediated G-protein activation, GTP-γ-[35S] binding; type: biochemical; conditions: stimulation with 300 nM nociceptin/OFQ; read-out: Kb for the ORL-1 receptor (antagonist affinity)
T1 construct: expressed in transfected cells
Source text: Agonist-mediated stimulation of G-protein coupled receptors results in the activation of membrane associated Gαβγ-protein heterotrimer complexes, and represents the first step in the transduction of extracellular signals to modification of intracellular pathways. The first step in activation of receptor-mediated activation of Gαβγ-proteins heterotrimer is the exchange of Gα subunit bound guanosine diphoshpate (GDP) for guanosine triphosphate (GTP). The binding of GTP to the Gα subunit causes dissociation of the heterotrimer subunits, Gβ and Gγ, resulting in the modulation of several intracellular signaling cascades. Measurement of receptor-mediated G-protein activation can be measured using the non-hydrolyzable radiolabeled analog of GTP, GTP-γ-[35S]. Utilizing this methodology, antagonist affinity (Kb) is measured in membranes expressing cloned human ORL1/nociceptin receptors using a GTP-γ-[35S] binding assay according to previously described protocols with minor modifications (DeLapp et al., J Pharmacol Exp Ther. 1999 May; 289(2):946-55; Ozaki et al., Eur J Pharmacol. 2000 Aug. 18; 402(1-2):45-53). Assays are conducted in a 200-μl volume with the following buffer composition: 100 mM NaCl, 20 mM HEPES, 5 mM MgCl2, 1 mM EDTA, 0.1% BSA, 3 μM GDP, 0.5 nM [^35S]GTPγS. ORL1 receptor membrane suspension is added at a concentration of 20 μg protein per well and receptor stimulation is achieved using 300 nM nociceptin/OFQ. Wheat germ agglutinin coated SPA beads (Amersham, Arlington Hts., IL) are added at 1 mg per well to detect membrane-bound [^35S]GTPγS. Plates are sealed and incubated for 2 hr. at room temperature. Plates are then placed at 4° C. overnight to allow the SPA beads to settle and then counted in a Wallac Microbeta. Specific [^35S]GTPγS binding is determined as the difference in CPM observed in the absence and presence of 10 μM unlabeled GTPγS. Data are plotted as the percent of specific [^35S]GTPγS bound. Curves are plotted as the percent of specific binding and IC50 values are determined using a sigmoidal dose response curve with variable slope. […]

[3] = test system: 129S6 wild type and nociceptin/ORL1 receptor knockout mice; assay: mFST in wild type and ORL-1 knockout mice; type: in vivo
Source text: (§1) mFST is an established in vivo assay for antidepressant activity (Li et al. J Pharmacol Exp Ther. 319(1):254-9, 2006.). […] The mFST was used to evaluate potential antidepressant-like activity of novel nociceptin/ORL1 antagonists according to previously published methods (Li et al. J Pharmacol Exp Ther. 319(1):254-9, 2006.). Briefly, male NIH-Swiss mice (Harlan Sprague-Dawley, Indianapolis, Ind.) weighing between 25-30 g are used. Group housed animals are removed from the vivarium to the testing area in their own cages and allowed to adapt to the new environment for at least 1 hour before testing. Alternatively, male 129S6 wild type and nociceptin/ORL1 receptor knockout mice were used to confirm dependence of the response to compound was nociceptin/ORL1 receptor dependent. All compounds are prepared in 20% Captisol, 25 mM phosphate buffer, pH 2.0 on the day of use. Mice are placed in a cylinder (diameter: 10 cm; height: 25 cm) filled with 6 cm of water (22-25° C.) for 6 min. The duration of immobility during the last 4 min. of the 6 min. period of the test was scored. A mouse is recorded as immobile when floating motionless or making only those movements necessary to keep its head above water.
Yet further, these effects of reduced immobilization times are not observed when ORL-1 knockout mice, a strain of mice engineered to lack the ORL-1 receptor, are used, showing that the effect is indeed mediated by the ORL-1 receptor.

[4] = test system: male NIH-Swiss mice; assay: Forced-swim test in mice (mFST); type: in vivo
Source text: as §1

[5] = test system: Male Sprague-Dawley rats; assay: Rat dural plasma protein extravasation (PPE) model, oral dosing; type: in vivo; conditions: 1.0 mg/kg po
Protocol: All test compounds are prepared in a vehicle solution containing 20% Captisol in 25 mM phosphate buffer (pH 2.0). The positive control compound, sumatriptan, is dissolved in saline. Male Sprague-Dawley rats from Harlan Laboratories (250 to 350 g), that have been fasted overnight, are dosed with test compound, sumatriptan or vehicle by oral gavage (2 mL/kg). Fifty min. post-dose the rats are anesthetized with Nembutal (60 mg/kg, ip) and placed in a stereotaxic frame with the incisor bar set at −2.5 mm. Following a mid-line sagittal scalp incision, 2 pairs of bilateral holes were drilled through the skull (3.2 mm posteriorly, 1.8 and 3.8 mm laterally, all coordinates referenced to bregma). Pairs of stainless steel stimulating electrodes (Rhodes Medical Systems Inc), insulated except at the tips, are lowered through the holes in both hemispheres to a depth of 9.2 mm below the dura.
A solution of fluoroscein isothiocyanate (FITC) dye-labeled bovine serum albumin (BSA) (FITC-BSA) (20 mg/kg, iv), is injected into the femoral vein 2 minutes prior to electrical stimulation of the trigeminal ganglion to function as the marker for protein extravasation. Sixty minutes following dosing with test compound or vehicle, the left trigeminal ganglion is electrically stimulated for 5 minutes at a current intensity of 1.0 mA (5 Hz, 5 minutes duration).
Five minutes following stimulation, the rats are killed by exsanguination with 40 mL of saline which also rinses residual FITC/BSA out of the blood vessels. The top of the skull is removed to collect the dural membranes. The membrane samples are removed from both hemispheres, rinsed with water, and spread flat on microscope slides. The slides are dried for 15 minutes on a slide warmer and cover-slipped with a 70% glycerol/water solution.
A fluorescence microscope equipped with a grating monochromator and a spectrophotometer is used to quantify the amount of FITC-BSA dye in each dural sample. The microscope is equipped with a motorized stage interfaced with a personal computer. This facilitates the computer-controlled movement of the stage, with fluorescence measurements at 25 points (500 μm steps) on each dural sample. The extravasation induced by electrical stimulation of the trigeminal ganglion is an ipsilateral effect (that is occurs only on the side of the dura in which the trigeminal ganglion is stimulated). This allows the other (unstimulated) half of the dura to be used as a control. The extravasation ratio (that is the ratio of the amount of extravasation in the dura from the stimulated side compared to the unstimulated side) is calculated. Animals dosed with vehicle alone or an ineffective dose of the test compound have an extravasation ratio of approximately 2, while totally effective treatments result in a ratio of approximately 1.
Results are expressed as mean values with standard errors of the mean (±SEM). All statistical evaluations are conducting utilizing ANOVA followed by comparison to the control group by Dunnett's Method. Statistical significance is assumed when p<0.05. Statistical analyses are performed using JMP statistical analysis software (SAS Research Institute, version 6.0.2).

[6] = test system: wild type and ORL knockout mice; assay: Blockade of fasting-induced hyperphagia in mice; type: in vivo
Source text: Blockade of fasting-induced hyperphagia in rodents is an accepted model for hyperphagic eating disorders. […] Mice are individually housed a minimum of 3 days prior to the onset of testing to eliminate any effects of stress due to the change from group to individual housing. Three mice/genotype are randomly assigned to each treatment group on the test day. Pre-fast body weight measurements are taken, and food is then removed from cages overnight. Mice are fasted for approximately 15 hr. The next morning, the mice are given one of three doses of drug or vehicle via oral gavage 30 min. prior to gaining access to food. Drugs are dissolved in 20% Captisol dissolved in 25 mM phosphate buffer, pH 2.0. Measurements of body weight are taken immediately prior to drug treatment or 24 hr. after access to food is restored. […] Measurements of food intake are recorded 1 hr following access to food, as indicated, by weight of food remaining at 1 hr. It should be noted that food intake measured is during the light phase, a time during which mice are typically at rest and not normally eating. Following initial testing, mice are rested for 1 week with access to unlimited chow.

T1 sequence (P41146 whole entry): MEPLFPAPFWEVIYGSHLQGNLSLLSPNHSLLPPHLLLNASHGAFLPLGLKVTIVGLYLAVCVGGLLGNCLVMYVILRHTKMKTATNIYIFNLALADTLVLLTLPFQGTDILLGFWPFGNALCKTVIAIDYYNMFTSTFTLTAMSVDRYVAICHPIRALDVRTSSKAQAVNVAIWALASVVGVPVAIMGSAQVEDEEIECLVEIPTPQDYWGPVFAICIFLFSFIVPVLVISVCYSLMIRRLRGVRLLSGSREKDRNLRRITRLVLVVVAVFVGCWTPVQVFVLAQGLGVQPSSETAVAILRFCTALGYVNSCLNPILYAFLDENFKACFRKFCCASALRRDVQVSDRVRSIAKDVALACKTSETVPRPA

Cc1nn(-c2c(F)cccc2C(N)=O)cc1CN1CCC2(CC1)OCCc1c2sc(F)c1F.O=C(O)C(O)C(O)C(=O)O [3-fluoro-2-[4-[(2,3-difluorospiro[4,5-dihydrothieno[2,3-c]pyran-7,4′-piperidine]-1′-yl)methyl]-3-methyl-pyrazol-1-yl]benzamide (L) Tartrate, reference compound]
Glutathione conjugate formation [1]: Yes

Cc1nn(-c2c(F)cccc2C(N)=O)cc1CN1CCC2(CC1)OCCc1cc(F)sc12.O=C(O)C(O)C(O)C(=O)O [3-fluoro-2-[4-[(2-fluorospiro[4,5-dihydrothieno[2,3-c]pyran-7,4′-piperidine]-1′-yl)methyl]-3-methyl-pyrazol-1-yl]benzamide (L) Tartrate, reference compound]
Glutathione conjugate formation [1]: Yes

Cc1nn(-c2ncccc2CO)cc1CN1CCC2(CC1)OCC(F)(F)c1cc(Cl)sc12 [Example 1, [2-[4-[(2-Chloro-4,4-difluoro-spiro[5H-thieno[2,3-c]pyran-7,4′-piperidine]-1′-yl)methyl]-3-methyl-pyrazol-1-yl]-3-pyridyl]methanol (L)-tartrate]
Kb [2]: 0.2 nM

COCc1cccnc1-n1cc(CN2CCC3(CC2)OCC(F)(F)c2cc(F)sc23)c(C)n1.O=C(O)C(O)C(O)C(=O)O [Example 10, 2,4,4-Trifluoro-1′-[[1-[3-(methoxymethyl)-2-pyridyl]-3-methyl-pyrazol-4-yl]methyl]spiro[5H-thieno[2,3-c]pyran-7,4′-piperidine] (L)-Tartrate]
Glutathione conjugate formation [1]: No

COCc1cccnc1-n1cc(CN2CCC3(CC2)OCCc2cc(Cl)sc23)c(C)n1.O=C(O)C(O)C(O)C(=O)O [Example 14, 2-Chloro-1′-[[1-[3-(methoxymethyl)-2-pyridyl]-3-methyl-pyrazol-4-yl]methyl]spiro[4,5-dihydrothieno[2,3-c]pyran-7,4′-piperidine] (L)-Tartrate]
Glutathione conjugate formation [1]: Yes

CN(C)CCCN1c2ccccc2CCc2ccccc21 [Imiprimine, reference compound]
effect on immobilization time ([3]; ORL-1 knockout mice): reduce immobilization times in both the wild type and knockout mice to an equivalent degree
effect on immobilization time ([3]; wild type mice): reduce immobilization times in both the wild type and knockout mice to an equivalent degree
Immobilization Time ([4]; 15 mg/kg, positive control): 96* sec

CNS(=O)(=O)Cc1ccc2[nH]cc(CCN(C)C)c2c1 [Sumatriptan, reference compound]
Extravasation Ratio (mean) [5]: 1.06*

CNCCC(Oc1ccc(C(F)(F)F)cc1)c1ccccc1 (stereo not drawn) [fluoxetine, reference compound]
Immobilization Time ([4]; 10 mg/Kg, alone): 168 s

Clc1cccc(N2CCNCC2)c1 [mCPP, meta-chlorophenylpiperazine, reference compound]
effect on fasting-induced hyperphagia ([6]; ORL-1 knockout mouse strain): significantly reduce fasting induced hyperphagia equally in both wild type mice and the ORL-1 knockout mouse strain
effect on fasting-induced hyperphagia ([6]; wild type mice, oral gavage 30 min. prior to food, food intake at 1 hr): significantly reduce fasting induced hyperphagia equally in both wild type mice and the ORL-1 knockout mouse strain
